Values after ≈ are worked out from the molar mass of the structure shown.
Experiments:
[1] = Cytotoxicity against African green monkey Vero cells assessed as reduction in cell viability after 72 hrs by MTT assay; format: cell-based; conditions: chlorocebus sabaeus
[2] = Selectivity index, ratio of CC50 for African green monkey Vero cells to MIC for Mycobacterium tuberculosis H37Rv ATCC 27294; format: toxicity; conditions: read-out: Selectivity Index
[3] = system: Mycobacterium tuberculosis; assay: Antimycobacterial activity against Mycobacterium tuberculosis H37Rv ATCC 27294 by two fold dilution method; format: functional

COc1c(N2CCNC(C)C2)c(F)cc2c(=O)c(C(=O)O)cn(C3CC3)c12 (configuration not stated) [GATIFLOXACIN]
CC50 at 72 h [1]: 125 µg/mL (≈ 333 µM)
selectivity ratio [2]: 160
MIC [3]: 0.78 µg/mL (≈ 2.08 µM)

NNC(=O)c1ccncc1 [ISONIAZID]
CC50 at 72 h [1]: 125 µg/mL (≈ 911 µM)
MIC [3]: 0.05 µg/mL (≈ 0.365 µM)

CO[C@H]1/C=C/O[C@@]2(C)Oc3c(C)c(O)c4c(O)c(c(/C=N/N5CCN(C)CC5)c(O)c4c3C2=O)NC(=O)/C(C)=C\C=C\[C@H](C)[C@H](O)[C@@H](C)[C@@H](O)[C@@H](C)[C@H](OC(C)=O)[C@@H]1C [RIFAMPIN]
CC50 at 72 h [1]: 500 µg/mL (≈ 608 µM)
MIC [3]: 0.39 µg/mL (≈ 0.474 µM)
